In patent publication US20010053796A1, “Delta-aminolevulinic acid for prevention and treatment of infection microorganisms and parasite” (priority 2000, published 2001):
≈ marks a conversion by molar mass, not a printed value.

Key:
[1] = tested on: Pseudomonas sp.; test: MIC assay by flat drug disc method; assay type: cell-based; conditions: prepared by the inventors
Method: (§1) Pathogenic index bacteria used in this experiment are Edwardsiella tard, Streptococcus sp., Staphylococcus sp., Staphylococcus epidermidis, Pseudomonas sp., Vibrio anguillarum which are collected from the marine fish farm nearby Yeosu. In solid culture, they were cultured in TSA (tryptic soy agar) supplemented with 0.2% NaCl flat media and in liquid culture, they were prepared by culturing in BHI broth for 24 hrs and setting the O.D. value as 1.0. δ-aminolevulinic acid used in this experiment were one on the market (Sigma) and one formulated by inventors of the present invention (Korean patent application No. 1998-41898). Each 0.167 g δ-aminolevulinic acid were dissolved in 1.0 mL sterilized distilled water was used as undiluted solution. 1.0 M δ-aminolevulinic acid was 2-fold diluted with BHI broth by stages up to 64-fold and prepared for test solution to examine pathogenic bacteria proliferation-prohibiting effect. […] In control group, instead of δ-aminolevulinic acid, BHI broth bacteria suspension were mixed with (1:1) and then observed with the same method above. MIC assay by δ-aminolevulinic acid for major pathogenic bacteria of marine cultivating fishes, Edwardsiella tard, Streptococcus sp., Staphylococcus sp., Staphylococcus epidermidis, Pseudomonas sp., Vibrio anguillarum was carried out by flat drug disc method. 100 μL of each bacteria in a culture solution was mixed with fixed amount of top agar and coated to TSA agar. 1.0 M δ-aminolevulinic acid solution was diluted by 2 folds in PBS and 10 μL of each dilution were absorbed to sterilized disc. After incubation at 23˜25° C. for 2˜3 days, antibacterial effect was indicated by measuring the size (mm) of clear zone. In control group, PBS was absorbed into disc instead of δ-aminolevulinic acid dilution solution with the same amount and observed. From the result of this experiment using δ-aminolevulinic acid on the market, proliferation-inhibiting effects of pathogenic bacteria according to δ-aminolevulinic acid concentration are shown in Table 2a (Edwardsiella tard) and Table 2b (Streptococcus sp.). Below 1/32 fold (31 mM) of δ-aminolevulinic acid dilution rate, proliferation of both bacteria was inhibited. […] The experimental result of δ-aminolevulinic acid prepared by the inventors has shown in Table 3 and no difference in effects from δ-aminolevulinic acid on the market.

[2] = tested on: Edwardsiella tarda; test: MIC assay by flat drug disc method; assay type: cell-based; conditions: prepared by the inventors
Method: as §1

[3] = tested on: Streptococcus sp.; test: MIC assay by flat drug disc method; assay type: cell-based; conditions: line printed Staphylococcus sp. (first of two), prepared by the inventors
Method: as §1

[4] = tested on: White Spot Syndrome Virus (WSSV); test: Prevention for White Spot Syndrome Virus infected shrimp; assay type: in vivo, Penaeus Chinesis
Method: The Shrimps (Penaeus Chinesis, size 6˜8 cm) were immersed in 0.01˜10 ppm of EnviroVax for 1.5 hr during 3 days and injected viral homogenate at 4 day.
The Viral homogenate was prepared as follows:
Homogenize 1 g of tissue (gill and stomach) in 1 ml PBS.
Centrifuge at 2,000 rpm for 10 min. at 4° C.
Filter the supernatant by using the 0.45 μm membrane filter.
Dilute the filtrate (1 part of filtrate to 10 parts of PBS).

[5] = tested on: Staphylococcus sp.; test: Treatment effect of infected fry by digestion in breeding water; assay type: in vivo, Bastardhalibut; conditions: 50 fish
Method: (§2) To be used as experimental fish in this example, fry of Bastardhalibut and Sebastes schlegeli (mean body weight 2 g), 50 per each breeding tank, were preliminary-bred for 1 week and stabilized. […] The artificial infection methods were carried out by the digestion method. Pathogenic organisms were applied into fish tanks and digested in seawater, wherein the concentration of organisms has adjusted to 10^4 CFU/mL for an hour, and infected. Treatment conditions are as follows. After artificial infection. Infected fishes were moved to fish tanks and kept in the infection period for 3 days. On the fourth day of infection, 0.1, 1.0, 5 and 10 ppm δ-aminolevulinic acid were introduced to use as breeding water. Fish was bred in aerobic condition for 1˜24 hours without exchanging water and then, bred for 2 weeks after exchanging with clean seawater. Then, they were monitored to check for the mortality of fish according to infection. In the control groups, after each bacteria were identically introduced through the digestion method, mortality of Bastardhalibut and Sebastes schlegeli according to bacteria infection was identified while breeding with non-treated condition of δ-aminolevulinic acid. As a result of this experiment, δ-aminolevulinic acid-treated groups have shown high viability in both Bastardhalibut (Table 12˜Table 15) and Sebastes schlegeli (Table 16˜Table 19).

[6] = tested on: Staphylococcus epidermis; test: as above; assay type: in vivo, Bastardhalibut; conditions: 50 fish
Method: as §2

[7] = tested on: Pseudomonas sp.; test: as above; assay type: in vivo, Bastardhalibut; conditions: 50 fish
Method: as §2

[8] = tested on: Edwardsiella tarda; test: as above; assay type: in vivo, Bastardhalibut; conditions: 50 fish
Method: as §2

[9] = tested on: Vibrio anguillarum; test: as above; assay type: in vivo, Bastardhalibut; conditions: 50 fish
Method: as §2

[10] = tested on: Streptococcus sp.; test: as above; assay type: in vivo, Bastardhalibut; conditions: 50 fish
Method: as §2

[11] = digestion 0.1 ppm from 4th day of infection, Bastard halibut fry
[12] = digestion 1.0 ppm from 4th day of infection, Bastardhalibut fry
[13] = digestion 5.0 ppm from 4th day of infection
[14] = digestion 10 ppm from 4th day of infection, Bastardhalibut fry
[15] = digestion 5.0 ppm from 4th day of infection, in Bastard halibut
[16] = digestion 10 ppm from 4th day of infection

With NCC(=O)CCC(=O)O [δ-aminolevulinic acid] the MIC [1] was 42.2 µg/mL (≈ 322 µM), the MIC [2] was 56 µg/mL (≈ 427 µM) and the MIC [3] was 72.9 µg/mL (≈ 556 µM). The Cumulative mortality ([4]; 0.01 ppm, after injection for 3 weeks) was 100%, the “Mortality after injection for 3 weeks” value ([4]; 0.01 ppm, day 1, 50 shrimp) was 0 and the “Mortality after injection for 3 weeks” value ([4]; 0.01 ppm, day 2, 50 shrimp) was 0. For the same compound, the “Mortality after injection for 3 weeks” value ([4]; 0.01 ppm, day 3, 50 shrimp) was 15, the “Mortality after injection for 3 weeks” value ([4]; 0.01 ppm, day 4, 50 shrimp) was 20 and the “Mortality after injection for 3 weeks” value ([4]; 0.01 ppm, day 5, 50 shrimp) was 12. For the same compound, the “Mortality after injection for 3 weeks” value ([4]; 0.01 ppm, day 6, 50 shrimp) was 3, the Cumulative mortality ([4]; 0.1 ppm, after injection for 3 weeks) was 12% and the “Mortality after injection for 3 weeks” value ([4]; 0.1 ppm, day 1, 50 shrimp) was 0. The “Mortality after injection for 3 weeks” value ([4]; 0.1 ppm, day 2, 50 shrimp) was 0, the “Mortality after injection for 3 weeks” value ([4]; 0.1 ppm, day 3, 50 shrimp) was 2 and the “Mortality after injection for 3 weeks” value ([4]; 0.1 ppm, day 4, 50 shrimp) was 3. The “Mortality after injection for 3 weeks” value ([4]; 0.1 ppm, day 5, 50 shrimp) was 1, the “Mortality after injection for 3 weeks” value ([4]; 0.1 ppm, day 6, 50 shrimp) was 0 and the “Mortality after injection for 3 weeks” value ([4]; 0.1 ppm, day 7, 50 shrimp) was 0. The “Mortality after injection for 3 weeks” value ([4]; 0.1 ppm, day 21, 50 shrimp) was 0, the Cumulative mortality ([4]; 1.0 ppm, after injection for 3 weeks) was 8% and the “Mortality after injection for 3 weeks” value ([4]; 1.0 ppm, day 1, 50 shrimp) was 0. The “Mortality after injection for 3 weeks” value ([4]; 1.0 ppm, day 2, 50 shrimp) was 1, the “Mortality after injection for 3 weeks” value ([4]; 1.0 ppm, day 3, 50 shrimp) was 2 and the “Mortality after injection for 3 weeks” value ([4]; 1.0 ppm, day 4, 50 shrimp) was 1. For the same compound, the “Mortality after injection for 3 weeks” value ([4]; 1.0 ppm, day 5, 50 shrimp) was 0, the “Mortality after injection for 3 weeks” value ([4]; 1.0 ppm, day 6, 50 shrimp) was 0 and the “Mortality after injection for 3 weeks” value ([4]; 1.0 ppm, day 7, 50 shrimp) was 0. For the same compound, the “Mortality after injection for 3 weeks” value ([4]; 1.0 ppm, day 21, 50 shrimp) was 0, the Cumulative mortality ([4]; 10 ppm, after injection for 3 weeks) was 6% and the “Mortality after injection for 3 weeks” value ([4]; 10 ppm, day 1, 50 shrimp) was 0. The “Mortality after injection for 3 weeks” value ([4]; 10 ppm, day 2, 50 shrimp) was 0, the “Mortality after injection for 3 weeks” value ([4]; 10 ppm, day 3, 50 shrimp) was 3 and the “Mortality after injection for 3 weeks” value ([4]; 10 ppm, day 4, 50 shrimp) was 0. The “Mortality after injection for 3 weeks” value ([4]; 10 ppm, day 5, 50 shrimp) was 0, the “Mortality after injection for 3 weeks” value ([4]; 10 ppm, day 6, 50 shrimp) was 0 and the “Mortality after injection for 3 weeks” value ([4]; 10 ppm, day 7, 50 shrimp) was 0. For the same compound, the “Mortality after injection for 3 weeks” value ([4]; 10 ppm, day 21, 50 shrimp) was 0, the Cumulative mortality ([4]; immersion 1.0 ppm, 1.5 hr during 3 days before virus injection, 3 weeks) was 8% and the Cumulative mortality ([4]; immersion 10 ppm, 1.5 hr during 3 days before virus injection, 3 weeks) was 6%. For the same compound, the Viability [5, 11] was 54%, the Viability [5, 12] was 66% and the Viability [5, 13] was 84%. The Viability [5, 14] was 84%, the Viability [6, 11] was 42% and the Viability [6, 12] was 66%. For the same compound, the Viability [6, 15] was 80%, the Viability [6, 16] was 84% and the Viability [7, 11] was 50%. For the same compound, the Viability [7, 12] was 70%, the Viability [7, 15] was 80% and the Viability [7, 16] was 84%. The Viability [8, 11] was 54%, the Viability [8, 12] was 76% and the Viability [8, 15] was 86%. For the same compound, the Viability [8, 14] was 84%, the Viability [9, 11] was 56% and the Viability [9, 12] was 66%. It also gave a Viability [9, 13] of 84%, a Viability [9, 14] of 80% and a Viability [10, 11] of 46%. The Viability [10, 12] was 64%, the Viability [10, 15] was 84% and the Viability [10, 14] was 90%.
